36 substances from patent US20100119483A1, “PEPTIDE VIRAL ENTRY INHIBITORS” (Schering Corporation, priority 2004, published 2010) can be followed below.

“And” between values parts separate entries of the source, which are not always exact repeats. Equal entries are not always repeated. Ends that are not written are not given here.

In test [1] the test system is amphotropic murine leukemia virus. The test is described as follows: AMLV pseudotyped virus entry counter-screen, same infection protocol. It counts as cell-based. The following applies: for AMLVpp % inh: peptide library screen, cell entry inhibition vs uninhibited control; for luciferase units, AMLV entry: duplicates, listed as scrambled SEQ ID NO: 106. As for the experimental part: Infection of hepatoma cell lines with HCV pseudotype particles and screen for inhibitory peptides. The hepatoma cells, Huh7, was seeded at 8000 cells in 90 ul medium in 96-well plate. In the case of the inhibitor screen, the inhibitor was incubated with cells for one hour at 37° C. and then 50 ul viral supernatant was added to the cells 24 hours after seeding. The viral stock was pre-tittered and diluted to yield approximately 10,000 to 20,000 RLU. The cells were incubated at 37° C. with 5% CO2 for additional 72 hours and were harvested for luciferase assay. Peptide stocks were prepared in 100% DMSO at 10 mg/ml and were first screened at 100 ug/ml and then a dose responsive curve was generated with 10 points 3-fold titration starting from 100 ug/ml.
The specificity of the peptides were counter-screened with AMLV and HIV pseudotyped viruses using the same infection protocol.

Another test relates to HCV pseudoparticles. The test is described as follows: HCV pseudoparticle (HCVpp) entry assay in Huh7 hepatoma cells, luciferase readout. It counts as cell-based, hepatitis C virus. The settings on record: for HCVpp % inh: peptide library screen, first screened at 100 ug/ml, cell entry inhibition vs uninhibited control; for luciferase units, HCV entry: duplicates, listed as scrambled SEQ ID NO: 138. In short, it runs like this: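 Huh7 cells were pre-treated with peptide for 1 h at 37 °C before exposure to HCV E1/E2-pseudotyped HIV luciferase particles made in 293T cells, followed by 72 h culture and luciferase readout. Peptides were tested at 10 points, 3-fold, from 100 ug/ml; particles lacking envelope served as non-specific entry control.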

Regarding “E-Y-V-L-L-L-F-L-L-L-A-D-A-R-V-C [SEQ ID NO: 78]”, the AMLVpp % inh in test [1] stood at 34%. The HCVpp % inh in the test with HCV pseudoparticles was 38%.

For “F-A-Q-G-W-G-P-I-T-Y-N-E-S-H-S-S [SEQ ID NO: 42]”, in test [1], the AMLVpp % inh is on record as 15%. Also, the HCVpp % inh in the test on HCV pseudoparticles came to 49%.

Take “F-L-A-A-L-F-Y-V-H-K-F-N-S-S-G-C [SEQ ID NO: 38]”: the AMLVpp % inh in test [1] is listed as −44%. Besides, the HCVpp % inh with HCV pseudoparticles was 23%.

On to “G-C-P-E-R-M-A-S-C-S-P-I-D-A-F-A [SEQ ID NO: 40]”, for which, in test [1], the AMLVpp % inh is given as −4%. The HCVpp % inh in the test with HCV pseudoparticles amounted to 35%.

Regarding “G-H-V-T-G-H-R-M-A-W-D-M-M-M-N-W [SEQ ID NO: 20]”, in test [1], the AMLVpp % inh amounted to 6%. Besides, in the test with HCV pseudoparticles, the HCVpp % inh amounted to 43%.

With “G-S-G-P-W-L-T-P-R-C-L-V-H-Y-P-Y (GSGPWLTPRCLVHYPY; HCV peptide) [SEQ ID NO: 61]”, in test [1], the AMLVpp % inh is −8%. For the same substance, in the test on HCV pseudoparticles, the HCVpp % inh was −15%.

For “G-V-Y-H-V-T-N-D-C-S-N-A-S-I-V-Y [SEQ ID NO: 4]”, in test [1], the AMLVpp % inh is on record as −6%. For the same substance, the HCVpp % inh in the test on HCV pseudoparticles is −23%.

In the case of “I-F-K-V-R-M-Y-V-G-G-V-E-H-R-L-E (IFKVRMYVGGVEHRLE; HCV peptide) [SEQ ID NO: 65]”, the AMLVpp % inh in test [1] is −62%. Further, in the test on HCV pseudoparticles, the HCVpp % inh is listed as 19%.

Consider “I-M-H-T-P-G-C-V-P-C-V-R-E-N-N-S [SEQ ID NO: 7]”, for which, in test [1], the AMLVpp % inh was −4%. Further, the HCVpp % inh in the test with HCV pseudoparticles is 3%.

“I-T-Y-N-E-S-H-S-S-D-Q-R-P-Y-C-W [SEQ ID NO: 43]”: the AMLVpp % inh in test [1] was 17%. Moreover, the HCVpp % inh with HCV pseudoparticles is −13%.

Regarding “K-T-L-T-C-P-T-D-C-F-R-K-H-P-E-A [SEQ ID NO: 58]”, in test [1], the AMLVpp % inh stood at 13%. Besides, the HCVpp % inh in the test on HCV pseudoparticles turned out to be 50%.

Take “L-E-A-A-C-N-W-T-R-G-E-R-C-N-L-E [SEQ ID NO: 67]”: the AMLVpp % inh in test [1] is given as 37%. Moreover, the HCVpp % inh with HCV pseudoparticles came to 26%.

On to “L-E-D-R-D-R-S-E-L-S-P-L-L-L-S-T (LEDRDRSELSPLLLST; not fully specified (C-terminus); printed as L-E-D-R-D-R-S-E-L-S-P-L-L-L-S-T) [SEQ ID NO: 69]”, for which the AMLVpp % inh in test [1] is reported as 1%. The HCVpp % inh in the test with HCV pseudoparticles is given as −15%.

With “L-F-S-P-G-S-S-Q-K-I-Q-L-V-N-T-N [SEQ ID NO: 33]”, the AMLVpp % inh in test [1] is reported as −49%. The HCVpp % inh with HCV pseudoparticles is on record as 61%.

Consider “L-F-T-F-S-P-R-R-H-E-T-V-Q-D-C-N [SEQ ID NO: 17]”, for which the AMLVpp % inh in test [1] is 16%. Besides, the HCVpp % inh with HCV pseudoparticles is 9%.

“L-I-H-L-H-Q-N-V-V-D-V-Q-Y-L-Y-G [SEQ ID NO: 74]”: the AMLVpp % inh in test [1] was determined as 5%. Moreover, the HCVpp % inh in the test on HCV pseudoparticles is 22%.

“L-L-L-A-D-A-R-V-C-A-C-L-W-M-M-L [SEQ ID NO: 79]”: in test [1], the AMLVpp % inh is on record as 16%. Also, the HCVpp % inh in the test on HCV pseudoparticles came out at 77%.

As for “L-P-A-L-S-T-G-L-I-H-L-H-Q-N-V-V [SEQ ID NO: 73]”, the AMLVpp % inh in test [1] is recorded as 0%. Moreover, in the test with HCV pseudoparticles, the HCVpp % inh is listed as 19%.

“L-P-C-S-F-T-T-L-P-A-L-S-T-G-L-I (LPCSFTTLPALSTGLI; HCV peptide) [SEQ ID NO: 72]”: the AMLVpp % inh in test [1] was found to be 20%. In addition, the HCVpp % inh with HCV pseudoparticles was −2%.

For “L-V-V-S-Q-L-L-R-I-P-Q-A-V-V-D-M [SEQ ID NO: 23]”, the AMLVpp % inh in test [1] is on record as −1%. For the same substance, the HCVpp % inh in the test with HCV pseudoparticles is recorded as 3%.

For “LKLFEVYLILWLA (HCV peptide) [SEQ ID NO: 138, scrambled 13-mer]”, the “luciferase units, AMLV entry” value in test [1] (0.04115226 uM of peptide) is 43854 luciferase units and 39721 luciferase units and 46556 luciferase units and 44480 luciferase units and 40734 luciferase units and 47413 luciferase units; in test [1] (0.1234568 uM of peptide) it was 39298 luciferase units and 28711 luciferase units and 46132 luciferase units and 49974 luciferase units and 42958 luciferase units and 51726 luciferase units; in test [1] (0.3703704 uM of peptide), 48158 luciferase units and 45212 luciferase units and 49139 luciferase units and 49219 luciferase units and 51358 luciferase units and 50551 luciferase units; in test [1] (1.111111 uM of peptide), 49084 luciferase units and 39443 luciferase units and 53349 luciferase units and 51341 luciferase units and 46069 luciferase units and 46019 luciferase units; in test [1] (3.333333 uM of peptide), 50674 luciferase units and 41738 luciferase units and 60859 luciferase units and 50020 luciferase units and 51236 luciferase units and 49388 luciferase units; in test [1] (30 uM of peptide), 87785 luciferase units and 60410 luciferase units and 83010 luciferase units and 77083 luciferase units and 85612 luciferase units and 79287 luciferase units. Moreover, the “luciferase units, HCV entry” value is 12287 luciferase units and 13159 luciferase units and 13838 luciferase units and 13589 luciferase units and 10645 luciferase units and 10230 luciferase units in the test on HCV pseudoparticles (0.04115226 uM of peptide); 9257 luciferase units and 8961 luciferase units and 11382 luciferase units and 10746 luciferase units and 7229 luciferase units and 6598 luciferase units with HCV pseudoparticles (0.1234568 uM of peptide); 7620 luciferase units and 8597 luciferase units and 9180 luciferase units and 5716 luciferase units and 8494 luciferase units and 8291 luciferase units with HCV pseudoparticles (0.3703704 uM of peptide); 6456 luciferase units and 7681 luciferase units and 9683 luciferase units and 9482 luciferase units and 9053 luciferase units and 7359 luciferase units in the test with HCV pseudoparticles (1.111111 uM of peptide); 7729 luciferase units and 11535 luciferase units and 12632 luciferase units and 8653 luciferase units and 8028 luciferase units and 10288 luciferase units in the test on HCV pseudoparticles (3.333333 uM of peptide); 7047 luciferase units and 5340 luciferase units and 7406 luciferase units and 5158 luciferase units and 5107 luciferase units and 5826 luciferase units in the test with HCV pseudoparticles (30 uM of peptide). Further, the “activity compared to the wild type 13-mer peptide” value in the test with HCV pseudoparticles (HCVpp entry inhibition, in words) is reported as “still showed some activity, though weakened”.

For the substance “M-A-W-D-M-M-M-N-W-S-P-T-A-A-L-V (MAWDMMMNWSPTAALV; not fully specified (C-terminus); printed as M-A-W-D-M-M-M-N-W-S-P-T-A-A-L-V) [SEQ ID NO: 21]”, the AMLVpp % inh in test [1] turned out to be 3%. Further, in the test on HCV pseudoparticles, the HCVpp % inh stood at 32%.

For the substance “N-D-S-L-N-T-G-F-L-A-A-L-F-Y-V-H [SEQ ID NO: 37]”, the AMLVpp % inh in test [1] amounted to 15%. Moreover, the HCVpp % inh in the test on HCV pseudoparticles was 14%.

Turning to “N-I-G-G-I-G-N-K-T-L-T-C-P-T-D-C [SEQ ID NO: 57]”, in test [1], the AMLVpp % inh was determined as 20%. Besides, in the test with HCV pseudoparticles, the HCVpp % inh stood at 39%.

Regarding “N-R-T-A-L-N-C-N-D-S-L-N-T-G-F-L (NRTALNCNDSLNTGFL; not fully specified (C-terminus); printed as N-R-T-A-L-N-C-N-D-S-L-N-T-G-F-L) [SEQ ID NO: 36]”, the AMLVpp % inh in test [1] was 18%. Besides, in the test on HCV pseudoparticles, the HCVpp % inh is reported as 23%.

For the substance “N-S-S-R-C-W-V-A-L-T-P-T-L-A-A-R [SEQ ID NO: 9]”, the AMLVpp % inh in test [1] is 28%. Besides, the HCVpp % inh in the test with HCV pseudoparticles is 5%.

In the case of “N-S-T-G-F-T-K-T-C-G-C-P-P-C-N-I [SEQ ID NO: 55]”, in test [1], the AMLVpp % inh is on record as 3%. The HCVpp % inh in the test on HCV pseudoparticles turned out to be 23%.

With “N-T-L-G-I-T-S-L-F-S-P-G-S-S-Q-K [SEQ ID NO: 32]”, the AMLVpp % inh in test [1] was 2%. Also, the HCVpp % inh in the test on HCV pseudoparticles was 11%.

For the substance “N-W-A-K-V-L-I-V-M-L-L-F-A-G-V-D [SEQ ID NO: 28]”, in test [1], the AMLVpp % inh is recorded as −1%. Besides, the HCVpp % inh in the test on HCV pseudoparticles is recorded as 13%.

On to “N-W-S-P-T-A-A-L-V-V-S-Q-L-L-R-I [SEQ ID NO: 22]”, for which the AMLVpp % inh in test [1] is on record as −11%. Also, in the test with HCV pseudoparticles, the HCVpp % inh worked out at 54%.

With “P-C-G-I-V-P-A-A-Q-V-C-G-P-V-Y-C [SEQ ID NO: 46]”, the AMLVpp % inh in test [1] is −2%. Moreover, the HCVpp % inh in the test on HCV pseudoparticles came out at 29%.

As to “P-C-T-V-N-F-T-I-F-K-V-R-M-Y-V-G (PCTVNFTIFKVRMYVG; HCV peptide) [SEQ ID NO: 64]”, the AMLVpp % inh in test [1] is listed as −30%. The HCVpp % inh in the test with HCV pseudoparticles is given as −2%.

As for “P-R-C-L-V-H-Y-P-Y-R-L-W-H-Y-P-C (PRCLVHYPYRLWHYPC; HCV peptide) [SEQ ID NO: 62]”, the AMLVpp % inh in test [1] is on record as −42%. The HCVpp % inh with HCV pseudoparticles stood at 10%.

For “P-Y-R-L-W-H-Y-P-C-T-V-N-F-T-I-F (PYRLWHYPCTVNFTIF; HCV peptide) [SEQ ID NO: 63]”, the AMLVpp % inh in test [1] is on record as 3%. Besides, the HCVpp % inh in the test on HCV pseudoparticles is 44%.

On to “Q-K-I-Q-L-V-N-T-N-G-S-W-H-I-N-R (QKIQLVNTNGSWHINR; HCV peptide) [SEQ ID NO: 34]”, for which, in test [1], the AMLVpp % inh turned out to be 13%. Also, in the test with HCV pseudoparticles, the HCVpp % inh is 6%.

For “R-F-G-V-P-T-Y-S-W-G-E-N-E-T-D-V [SEQ ID NO: 50]”, the AMLVpp % inh in test [1] is listed as 33%. Besides, the HCVpp % inh in the test with HCV pseudoparticles was found to be 34%.
